Measured values taken from patent publication US20230053688A1, “METHODS TO ALTER LATENCY IN EBV+ MALIGNANCIES” (Cornell University, priority 2020, published 2023).
Where a name gives a salt, the structure may show the parent alone. Read-outs that look alike come from different tables or passages of the source.

Test system: LMP1 expression in Kem I cells
Assay: microbe, parasite or virus in culture
Type: cell-based, EBV
Conditions: for fold induction at 2.5 µM / fold induction at 1 µM: human gammaherpesvirus 4, 48 h; for Average LMP1 Fold Increase / Replicate 1-LMP1 Fold Increase / Replicate 2-LMP1 Fold Increase: Kem I cells, 48 hours
[1] = read-out: Average LMP1 Fold Increase, Kem I cells, dose 2.5 uM, 48 hours, LMP1 transcript by in-well qRT-PCR, average of the two replicates
[2] = read-out: Replicate 1-LMP1 Fold Increase, Kem I cells, dose 2.5 uM, 48 hours, LMP1 transcript by in-well qRT-PCR, screen replicate 1
[3] = read-out: Replicate 2-LMP1 Fold Increase, Kem I cells, dose 2.5 uM, 48 hours, LMP1 transcript by in-well qRT-PCR, screen replicate 2
[4] = 2.5 uM, average of replicates 1 and 2
[5] = 2.5 uM, fold change in LMP1 transcript vs vehicle
[6] = dose 2.5 uM, LMP1 transcript by in-well qRT-PCR, average of the two replicates
[7] = dose 2.5 uM, LMP1 transcript by in-well qRT-PCR, screen replicate 1
[8] = dose 2.5 uM, LMP1 transcript by in-well qRT-PCR, screen replicate 2
[9] = read-out: Average LMP1 Fold Increase, Kem I cells, 2.5 uM, 48 hours, average of replicates 1 and 2
[10] = read-out: Replicate 1-LMP1 Fold Increase, Kem I cells, 2.5 uM, 48 hours, fold change in LMP1 transcript vs vehicle
[11] = read-out: Replicate 2-LMP1 Fold Increase, Kem I cells, 2.5 uM, 48 hours, fold change in LMP1 transcript vs vehicle

Compound | Average LMP1 Fold Increase [4] | Replicate 1-LMP1 Fold Increase [5] | Replicate 2-LMP1 Fold Increase [5] | other results
O=c1ncccn1[C@@H]1O[C@H](CO)[C@@H](O)[C@H]1O [Zebularine] | – | – | – | fold induction at 2.5 µM [1]: 0.52; fold induction at 2.5 µM [2]: 0.24; fold induction at 2.5 µM [3]: 0.79
O=C(Nc1ccccc1Br)N[C@@H]1CCN(c2ccc(C(F)(F)F)cn2)C1 [SB705498] | 0.43 | 0.38 | 0.48 | –
N#CSc1cc(SC#N)c(N)nc1N [PR-619] | 0.31 | 0.23 | 0.39 | –
C[C@H]1COC2(CCN(c3nc(=O)c4cc(C(F)(F)F)cc([N+](=O)[O-])c4s3)CC2)O1 (racemic) [BTZ043 Racemate] | 0.64 | 0.62 | 0.67 | –
O=[N+]([O-])c1ccc2c(c1)S(=O)(=O)C=C2 [Stattic] | 26.57 | 50.36 | 2.79 | –
O=C(/C=C\n1cnc(-c2cc(C(F)(F)F)cc(C(F)(F)F)c2)n1)NNc1cnccn1 [KPT-330] | 0.35 | 0.28 | 0.42 | –
O=C1CC(=O)c2c(Cl)c(Cl)c(Cl)c(Cl)c21 [TCID] | – | – | – | Average LMP1 Fold Increase [6]: 0.52 fold; Replicate 1-LMP1 Fold Increase [7]: 0.66 fold; Replicate 2-LMP1 Fold Increase [8]: 0.38 fold
CCOC(=O)c1ccc(N2NC(=O)/C(=C/c3ccc([N+](=O)[O-])o3)C2=O)cc1 [PYR-41] | 0.49 | 0.50 | 0.49 | –
CCOC(=O)N1CCC(=C2c3ccc(Cl)cc3CCc3cccnc32)CC1 [Loratadine] | – | – | – | fold induction at 2.5 µM [9]: 0.28; fold induction at 2.5 µM [10]: 0.24; fold induction at 2.5 µM [11]: 0.32
COc1ccc(-c2nc3ccc(C4=NNC(=O)CC4C)cc3[nH]2)cc1 (stereo not drawn) [Pimobendan] | – | – | – | fold induction at 2.5 µM [9]: 0.87; fold induction at 2.5 µM [10]: 1.11; fold induction at 2.5 µM [11]: 0.64
Cc1[nH]c2ccccc2c1CCNC(=O)c1cccs1 [CK-636] | 1.27 | 0.69 | 1.84 | –
C[C@@H]1C(=O)O[C@H]2C[C@@]34[C@H]5C[C@@H](C(C)(C)C)[C@]36[C@@H](OC(=O)[C@@H]6O)O[C@@]4(C(=O)O5)[C@]21O [Ginkgolide A] | 0.91 | 1.33 | 0.49 | –
CNC(=C[N+](=O)[O-])NCCSCc1ccc(CN(C)C)o1 [Ranitidine] | – | – | – | fold induction at 2.5 µM [9]: 1.04; fold induction at 2.5 µM [10]: 0.9; fold induction at 2.5 µM [11]: 1.18
COc1ccc(COc2ccc(Cc3cnc(N)nc3N)cc2OC)cc1 [GW2580] | 0.49 | 0.50 | 0.48 | –
C[C@@H](NCCCc1cccc(C(F)(F)F)c1)c1cccc2ccccc12 [Cinacalcet HCl] | – | – | – | fold induction at 2.5 µM [9]: 0.75; fold induction at 2.5 µM [10]: 1.17; fold induction at 2.5 µM [11]: 0.34
CCC(COC(=O)c1cc(OC)c(OC)c(OC)c1)(c1ccccc1)N(C)C (stereo not drawn) [Trimebutine] | – | – | – | fold induction at 2.5 µM [1]: 1.37; fold induction at 2.5 µM [2]: 2.11; fold induction at 2.5 µM [3]: 0.63
C=CC(=O)Nc1cccc(Nc2nc(Nc3ccc(OCCOC)cc3)ncc2F)c1 [AVL-292] | 0.52 | 0.48 | 0.56 | –
O=C(c1ccc(Nc2nccc(-c3cc4ccccc4s3)n2)cc1)N1CCC(N2CCCC2)CC1 [IKK-16 (IKK Inhibitor VII)] | 0.30 | 0.26 | 0.35 | –
N#Cc1ccc(C(c2ccc(C#N)cc2)n2cncn2)cc1 [Letrozole] | – | – | – | fold induction at 2.5 µM [9]: 1.05; fold induction at 2.5 µM [10]: 0.66; fold induction at 2.5 µM [11]: 1.44
COC(=O)CCSCc1ccc(-c2onc(C)c2NC(=O)OC(C)c2ccccc2Cl)cc1 (stereo not drawn) [Ki16198] | 1.33 | 1.53 | 1.12 | –
Cn1c(=O)n(-c2ccc(C(C)(C)C#N)cc2)c2c3cc(-c4cnc5ccccc5c4)ccc3ncc21 [BEZ 235] | – | – | – | fold induction at 1 µM (read-out: Average LMP1 Fold Increase, Kem I cells, 1 uM, 48 hours, average of replicates 1 and 2): 13.3; fold induction at 1 µM (read-out: Replicate 1-LMP1 Fold Increase, Kem I cells, 1 uM, 48 hours, fold change in LMP1 transcript vs vehicle): 17.4; fold induction at 1 µM (read-out: Replicate 2-LMP1 Fold Increase, Kem I cells, 1 uM, 48 hours, fold change in LMP1 transcript vs vehicle): 9.2

Compound | Average LMP1 Fold Increase [4] | Replicate 1-LMP1 Fold Increase [5] | Replicate 2-LMP1 Fold Increase [5] | other results
CCOc1ccccc1-n1c(C(C)N2CCN(C(=O)COc3ccc(Cl)cc3)CC2)nc2ccccc2c1=O (stereo not drawn) [Erastin] | – | – | – | fold induction at 2.5 µM [9]: 0.73; fold induction at 2.5 µM [10]: 0.7; fold induction at 2.5 µM [11]: 0.75
CCN1CCN(c2ccc(Nc3cc(N(C)C(=O)Nc4c(Cl)c(OC)cc(OC)c4Cl)ncn3)cc2)CC1 [BGJ398 (NVP-BGJ398)] | 0.85 | 1.02 | 0.69 | –
CC(C)(C)Cn1c(N)nc2ccc(-c3[nH]c(C(C)(C)C)nc3-c3ccc(F)cc3)nc21 [LY2228820] | 0.60 | 0.63 | 0.56 | –
Cc1cc(C)nc(NS(=O)(=O)c2ccc(NC(=S)NC(=O)COc3ccc(Br)cc3Cl)cc2)n1 [ZCL278] | – | – | – | Average LMP1 Fold Increase [6]: 0.85 fold; Replicate 1-LMP1 Fold Increase [7]: 1.26 fold; Replicate 2-LMP1 Fold Increase [8]: 0.44 fold
C[C@H]1COC2=C1C(=O)C(=O)c1c2ccc2c1CCCC2(C)C [Cryptotanshinone] | – | – | – | fold induction at 2.5 µM [9]: 0.85; fold induction at 2.5 µM [10]: 0.94; fold induction at 2.5 µM [11]: 0.77
C[C@@H]1CCN(C(=O)CC#N)C[C@@H]1N(C)c1ncnc2[nH]ccc12 [Tofacitinib (CP-690550,Tasocitinib)] | – | – | – | Average LMP1 Fold Increase [6]: 0.46 fold; Replicate 1-LMP1 Fold Increase [7]: 0.09 fold; Replicate 2-LMP1 Fold Increase [8]: 0.82 fold
COc1c(O)cc2c(c1O)[C@@H]1O[C@H](CO)[C@@H](O)[C@H](O)[C@H]1OC2=O [Bergenin] | – | – | – | fold induction at 2.5 µM [9]: 0.86; fold induction at 2.5 µM [10]: 0.65; fold induction at 2.5 µM [11]: 1.07
CN1CCCCC1Cn1cc(C(=O)c2cc([N+](=O)[O-])ccc2I)c2ccccc21 (stereo not drawn) [AM1241] | 0.79 | 1.01 | 0.56 | –
CNC(=O)c1ccc(N2C(=S)N(c3ccc(C#N)c(C(F)(F)F)c3)C(=O)C2(C)C)cc1F [Enzalutamide (MDV3100)] | 0.96 | 0.88 | 1.05 | –
Cn1cc(/C=C2\C(=O)Nc3cccnc32)c2ccccc21 [GW441756] | 0.80 | 0.70 | 0.89 | –
CC(C)(C)c1cnc(CSc2cnc(NC(=O)C3CCNCC3)s2)o1 [SNS-032 (BMS-387032)] | 23.97 | 23.56 | 24.39 | –
Cc1cn(-c2cc(NC(=O)c3ccc(C)c(Nc4nccc(-c5cccnc5)n4)c3)cc(C(F)(F)F)c2)cn1 [Nilotinib (AMN-107)] | 0.27 | 0.20 | 0.33 | –
Cc1cc([C@@H](C)Nc2ccccc2C(=O)O)c2nc(N3CCOCC3)cc(=O)n2c1 [AZD6482] | 0.22 | 0.06 | 0.37 | –
VU 0364770 | – | – | – | Average LMP1 Fold Increase [6]: 1.03 fold; Replicate 1-LMP1 Fold Increase [7]: 0.51 fold; Replicate 2-LMP1 Fold Increase [8]: 1.55 fold
CCCCN1CCCCC1C(=O)Nc1c(C)cccc1C (stereo not drawn) [Bupivacaine HCl] | – | – | – | fold induction at 2.5 µM [9]: 0.59; fold induction at 2.5 µM [10]: 0.64; fold induction at 2.5 µM [11]: 0.53
CN1CCC(CNc2ccc3ncc(-c4cccc(OC(F)(F)F)c4)n3n2)CC1 [SGI-1776 free base] | 1.26 | 1.94 | 0.57 | –
C[C@H](NC(=O)Cc1cc(F)cc(F)c1)C(=O)N[C@@H]1C(=O)N(C)c2ccccc2-c2ccccc21 [YO-01027] | – | – | – | Average LMP1 Fold Increase [6]: 0.35 fold; Replicate 1-LMP1 Fold Increase [7]: 0.44 fold; Replicate 2-LMP1 Fold Increase [8]: 0.27 fold
C=CCNC1=C2C[C@@H](C)C[C@H](OC)[C@H](O)[C@@H](C)/C=C(\C)[C@H](OC(N)=O)[C@@H](OC)/C=C\C=C(/C)C(=O)NC(=CC1=O)C2=O [17-AAG (Tanespimycin)] | 0.45 | 0.36 | 0.55 | –
CO[C@H]1C[C@@H]2CC[C@@H](C)[C@@](O)(O2)C(=O)C(=O)N2CCCC[C@H]2C(=O)O[C@H]([C@H](C)C[C@@H]2CC[C@@H](OC(=O)C(C)(CO)CO)[C@H](OC)C2)CC(=O)[C@H](C)/C=C(\C)[C@@H](O)[C@@H](OC)C(=O)[C@H](C)C[C@H](C)/C=C/C=C/C=C/1C [Temsirolimus (CCI-779, NSC 683864)] | – | – | – | Average LMP1 Fold Increase [6]: 155.77 fold; Replicate 1-LMP1 Fold Increase [7]: 1.06 fold; Replicate 2-LMP1 Fold Increase [8]: 310.48 fold
Nc1nc(OCc2cc(Br)cs2)c2[nH]cnc2n1 [Lomeguatrib] | – | – | – | fold induction at 2.5 µM [9]: 1.09; fold induction at 2.5 µM [10]: 0.57; fold induction at 2.5 µM [11]: 1.61
